Experimental data from ChEMBL document CHEMBL1795331, “Synthesis and biological activity of optically active NCL-1, a lysine-specific demethylase 1 selective inhibitor” (Bioorg Med Chem, 2011).

Experiments:
HeLa = assay: cells; conditions: Homo sapiens, 48 h
Description: Growth inhibition of human HeLa cells after 48 hrs by MTT assay

in vitro = conditions: human, HEK293 cells
Description: Growth inhibition of human HEK293 cells after 48 hrs by MTT assay

SH-SY5Y = assay: cells; conditions: Homo sapiens, 48 h
Description: Growth inhibition of human SH-SY5Y cells after 48 hrs by MTT assay

| GI50 (HeLa) | GI50 at 48 h (in vitro) | GI50 (SH-SY5Y) | SMILES |
| --- | --- | --- | --- |
| 20 µM | 17 µM | 9 µM | N[C@H]1C[C@@H]1c1cccc(OCC[C@H](NC(=O)c2ccccc2)C(=O)NCc2ccccc2)c1 |
| 74 µM | 25 µM | 9 µM | N[C@@H]1C[C@H]1c1cccc(OCC[C@H](NC(=O)c2ccccc2)C(=O)NCc2ccccc2)c1 |
